Test results published in publication doi:10.1101/2024.02.23.581746 (2024).

How the values were obtained:
[1] = tested on: L. rhamnosus PreQ1 (SHAPE-MaP) (RNA, riboswitch) GGGCCUUCGGGCCAAGGAACCGCCCCGCGCGCUUCCACGAUACUUAUUUCCUUUGAUCGUCGUUAUUACUGGCAAAGCCACAAAGGAGUCGAUCCGGUUCGCCGGAUCCAAAUCGGGCUUCGGUCCGGUUC; assay: SHAPE-MaP (2A3); details: 100 mM KCl, 1 mM MgCl2
[2] = tested on: B. subtilis PreQ1 (SHAPE-MaP) (RNA, riboswitch) GGGCCUUCGGGCCAAGCGGGAGAGGUUCUAGCUACACCCUCUAUAAAAAACUAAGGACGAGCUGUAUCCUUGGAUACGGCCUUUUUCGAUCCGGUUCGCCGGAUCCAAAUCGGGCUUCGGUCCGGUUC; assay: SHAPE-MaP (2A3); details: 100 mM KCl, 1 mM MgCl2
[3] = tested on: Tte-PreQ1 ab13_14_15 (RNA, riboswitch, abasic at 13, 14 and 15) CUGGGUCGCAGUNNNCCCAGUUAACAAAACAAG; assay: X-ray crystallography, 2.15 Å; details: potassium sodium tartrate 100-300 mM; sodium citrate pH 5.6, ammonium sulfate 2.0-2.6 M, 20 °C
[4] = tested on: Bsu PreQ1 RNA (MAGNA) (RNA, riboswitch) UCGGCGAUCUACGCAGCGACAUAAUAAGAGGUUCUAGCUACACCCUCUAUAAAAAACUAAUAACAACCACUUCCUAAUCUGUCAUCUUCUG; assay: magnetic force spectroscopy (MAGNA), median unfolding force; details: 100 mM KCl, 1 mM MgCl2; 50 mM HEPES pH 7.4, 1% DMSO, 22 °C; from refolding force 456±258 μM
[5] = tested on: F. prausnitzii PreQ1 (SHAPE-MaP) (RNA, riboswitch) GGGCCUUCGGGCCAAGGAACGCUGAAAGAGCAACUUAGGAUUUUAGGCUCCCCGGCGUGUCUCGAACCAUGCCGGGCCAAACCCAUAGGGCUGGCGGUCCCUGUGCGGUCAAAAUUCAUCCGCCGGAGUAUUGUUAUCGAUCCGGUUCGCCGGAUCCAAAUCGGGCUUCGGUCCGGUUC; assay: SHAPE-MaP (2A3); details: 100 mM KCl, 1 mM MgCl2
[6] = tested on: S. pneumoniae PreQ1 (SHAPE-MaP) (RNA, riboswitch) GGGCCUUCGGGCCAACUUGGUGCUUAGCUUCUUUCACCAAGCAUAUUACACGCGGAUAACCGCCAAAGGAGAAUCGAUCCGGUUCGCCGGAUCCAAAUCGGGCUUCGGUCCGGUUC; assay: SHAPE-MaP (2A3); details: 100 mM KCl, 1 mM MgCl2
[7] = tested on: Cy5-labeled Bsu PreQ1 aptamer (RNA, riboswitch) GCGGGAGAGGUUCUAGCUACACCCUCUAUAAAAAACUAAGGACGAGCUGUAUCCUUGGAUACGGCC; assay: MST; details: 100 mM KCl, 1 mM MgCl2, 50 mM Tris pH 7.5, room temperature, DMSO
[8] = tested on: Tte-PreQ1 ab13_14_15 (RNA, riboswitch, abasic at 13, 14 and 15) CUGGGUCGCAGUNNNCCCAGUUAACAAAACAAG; assay: X-ray crystallography, 2.25 Å; details: potassium sodium tartrate 100-300 mM; sodium citrate pH 5.6, ammonium sulfate 2.0-2.6 M, 20 °C
[9] = tested on: Cy5-labeled Bsu PreQ1 aptamer (RNA, riboswitch) GCGGGAGAGGUUCUAGCUACACCCUCUAUAAAAAACUAAGGACGAGCUGUAUCCUUGGAUACGGCC; assay: Cy5 fluorescence intensity assay (text says ligand fluorescence); details: 100 mM KCl, 1 mM MgCl2; 50 mM Tris pH 7.5, room temperature, 5% DMSO, 50 nM RNA
[10] = tested on: Cy5-labeled Bsu PreQ1 aptamer (RNA, riboswitch) GCGGGAGAGGUUCUAGCUACACCCUCUAUAAAAAACUAAGGACGAGCUGUAUCCUUGGAUACGGCC; assay: MST (Figure S1 legend); text says ligand fluorescence; details: 100 mM KCl, 1 mM MgCl2; 50 mM Tris pH 7.5, room temperature, DMSO
[11] = tested on: T. tengcongensis PreQ1 (SHAPE-MaP) (RNA, riboswitch) GGGCCUUCGGGCCAACUCACCUGGGUCGCAGUAACCCCAGUUAACAAAACAAGGGAGGUAAUUUUUCGAUCCGGUUCGCCGGAUCCAAAUCGGGCUUCGGUCCGGUUC; assay: SHAPE-MaP (2A3); details: 100 mM KCl, 1 mM MgCl2; 50 mM Tris pH 7.5, 10 μM compound
[12] = tested on: Bsu PreQ1 RNA (MAGNA) (RNA, riboswitch) UCGGCGAUCUACGCAGCGACAUAAUAAGAGGUUCUAGCUACACCCUCUAUAAAAAACUAAUAACAACCACUUCCUAAUCUGUCAUCUUCUG; assay: magnetic force spectroscopy (MAGNA); details: 100 mM KCl, 1 mM MgCl2; 50 mM HEPES pH 7.4, 1% DMSO, 22 °C; 500 nM called saturating
[13] = 50 mM Tris pH 7.5, 150 μM compound
[14] = 50 mM Tris pH 7.5, 10 μM compound

`CN(C)CCOc1ccc2oc3ccccc3c(=O)c2c1` was tested, and the binding [1, 13] was “yes”, the binding [2, 13] was “yes” and the binding [3] was “yes”. For the same molecule, the EC50 [4] was 394 ± 157 µM, the binding [5, 13] was “yes” and the binding [6, 13] was “yes”.
`CN(C)CCOc1ccc2sc3ccccc3c(=O)c2c1` was tested, and the KD [7] was 58 ± 30 µM.
In the case of `CNc1cc2c(=O)c3cc(O)ccc3oc2cn1`, the binding ([7]; tested up to 500 μM) is reported as “no”.
`COc1ccc2c(c1)NC(=O)c1cc(N)ccc1O2` showed a KD [7] of 1.9 ± 0.2 µM.
Work on `COc1ccc2c(c1)Oc1ccc(N)cc1C(=O)N2` yielded a KD [7] of 18.3 ± 7.0 µM.
For `Cc1nccc2c1[nH]c1cc(OCCN(C)C)ccc12`, the binding [8] was “yes” and the KD [9] was 104.4 ± 20 µM.
With `NC(=O)COc1ccc2oc3ccccc3c(=O)c2c1` the KD [10] was over 500 µM.
`NCc1c[nH]c2nc(N)[nH]c(=O)c12` was tested, and the binding [1, 14] was “yes”, the binding [2, 14] was “yes” and the binding [11] was “yes”. For the same molecule, the binding [5, 14] was “yes”, the binding [12] was “yes” and the binding [6, 14] was “yes”.
